Target: PD-L1 His protein / PD-1 Fc protein (Homo sapiens, UniProt Q9NZQ7)
Test: HTRF Assay (PD-1/PD-L1 interaction)
Assay type: binding
Details: PD-L1 His 6 nM, PD-1 Fc 6 nM
Procedure, shortened: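 Compounds tested from 20 μM down to 0.001 μM (3-fold) against 6 nM PD-L1 His and 6 nM PD-1 Fc, 15 min room temperature incubation. Detection after 1 h at room temperature with Tb cryptate anti-6HIS and XL665 anti-human IgG reagents (mixture at 0.35 nM and 6.7 nM), HTRF signal.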

Sequence of PD-L1 His protein / PD-1 Fc protein (Q9NZQ7 19-238 limits assumed): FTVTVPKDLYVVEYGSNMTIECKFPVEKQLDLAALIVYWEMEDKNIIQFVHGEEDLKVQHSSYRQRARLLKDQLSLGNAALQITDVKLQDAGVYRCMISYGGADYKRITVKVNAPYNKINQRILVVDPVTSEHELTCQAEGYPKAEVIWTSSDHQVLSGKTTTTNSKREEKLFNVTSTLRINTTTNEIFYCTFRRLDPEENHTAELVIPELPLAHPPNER

SMILES | IC50
COc1nc(-c2cccc(-c3cccc(-c4ccn5c(=O)c(CNC6CNC(=O)C6)cnc5c4)c3Cl)c2Cl)ccc1CNC1CNC(=O)C1 (mixture of isomers) [Example 63, 8-(2,2′-Dichloro-3′-(6-methoxy-5-(((5-oxopyrrolidin-3-yl)amino)methyl)pyridin-2-yl)-[1,1′-biphenyl]-3-yl)-3-(((5-oxopyrrolidin-3-yl)amino)methyl)-4H-pyrido[1,2-a]pyrimidin-4-one] | 1.5 nM
COc1nc(-c2cccc(-c3cccc(-c4cc5c(=O)n(C)c(CNCC(=O)O)nn5c4)c3Cl)c2Cl)ccc1CNC[C@@H]1CCC(=O)N1 [Example 487, 2-[[6-[2-Chloro-3-[2-chloro-3-[6-methoxy-5-[[[(2S)-5-oxopyrrolidin-2-yl]methylamino]methyl]-2-pyridyl]phenyl]phenyl]-3-methyl-4-oxo-pyrrolo[2,1-f][1,2,4]triazin-2-yl]methylamino]acetic acid] | 0.1 nM
COc1nc(-c2cccc(-c3cccc(-c4ccn5c(=O)c(CNC[C@@H](C)O)cnc5c4)c3Cl)c2Cl)ccc1CNC[C@@H]1CCC(=O)N1 [Example 132, 8-(2,2′-Dichloro-3′-(6-methoxy-5-(((((S)-5-oxopyrrolidin-2-yl)methyl)amino)methyl)pyridin-2-yl)-[1,1′-biphenyl]-3-yl)-3-((((R)-2-hydroxypropyl)amino)methyl)-4H-pyrido[1,2-a]pyrimidin-4-one] | 1.7 nM
COc1nc(-c2cccc(-c3cccc(-c4ccn5c(=O)c(CN6CC7(C6)CN(C(C)=O)C7)cnc5c4)c3Cl)c2Cl)ccc1CNC[C@@H]1CCC(=O)N1 [Example 329, (S)-3-((6-Acetyl-2,6-diazaspiro[3.3]heptan-2-yl)methyl)-8-(2,2′-dichloro-3′-(6-methoxy-5-((((5-oxopyrrolidin-2-yl)methyl)amino)methyl)pyridin-2-yl)-[1,1′-biphenyl]-3-yl)-4H-pyrido[1,2-a]pyrimidin-4-one] | 0.1 nM
COC(=O)C(C)(C)CNCc1cnc2cc(-c3cccc(-c4cccc(-c5ccc(CNC[C@@H]6CCC(=O)N6)c(OC)n5)c4Cl)c3Cl)ccn2c1=O [Example 384, methyl (S)-3-(((8-(2,2′-dichloro-3′-(6-methoxy-5-((((5-oxopyrrolidin-2-yl)-methyl)-amino)-methyl)-pyridin-2-yl)-[1,1′-biphenyl]-3-yl)-4-oxo-4H-pyrido[1,2-a]pyrimidin-3-yl)-methyl)-amino)-2,2-dimethylpropanoate] | 2.7 nM
COc1nc(-c2cccc(-c3cccc(-c4ccn5c(=O)c(CNC[C@H](C)O)c(OC)nc5c4)c3Cl)c2Cl)ccc1CNC[C@@H]1CCC(=O)N1 [Example 262] | 6.1 nM
O=C1CC[C@@H](CNCc2cnc3cc(-c4cccc(-c5cccc(-c6ccn7c(=O)c(CNC[C@@H]8CCC(=O)N8)cnc7c6)c5Cl)c4Cl)ccn3c2=O)N1 [Example 48, (S)-8,8′-(2,2′-Dichloro-[1,1′-biphenyl]-3,3′-diyl)bis(3-(((((S)-5-oxopyrrolidin-2-yl)methyl)amino)methyl)-4H-pyrido[1,2-a]pyrimidin-4-one)] | 7 nM
COc1nc(-c2cccc(-c3cccc(-c4cnc5sc(N6CCN(CCO)CC6)nn45)c3Cl)c2Cl)ccc1CNC[C@@H]1CCC(=O)N1 [Example 241, (S)-5-((((6-(2,2′-Dichloro-3′-(2-(4-(2-hydroxyethyl)piperazin-1-yl)imidazo[2,1-b][1,3,4]thiadiazol-5-yl)-[1,1′-biphenyl]-3-yl)-2-methoxypyridin-3-yl)methyl)amino)methyl)pyrrolidin-2-one] | 900 nM
COc1nc(-c2cccc(-c3cccc(-c4cc(=O)n5cc(CNC[C@@H]6CCC(=O)N6)ccc5n4)c3Cl)c2Cl)ccc1CNC[C@@H]1CCC(=O)N1 [Example 59, 2-(2,2′-Dichloro-3′-(6-methoxy-5-(((((S)-5-oxopyrrolidin-2-yl)methyl)amino)methyl)pyridin-2-yl)-[1,1′-biphenyl]-3-yl)-7-(((((S)-5-oxopyrrolidin-2-yl)methyl)amino)methyl)-4H-pyrido[1,2-a]pyrimidin-4-one] | 2.9 nM
COc1nc(-c2cccc(-c3cccc(-c4ccn5c(=O)c(CNCC6NC(=O)CC6(C)C)cnc5c4)c3Cl)c2Cl)ccc1CNC[C@@H]1CCC(=O)N1 (stereo partly drawn) [Example 359, 8-(2,2′-dichloro-3′-(6-methoxy-5-(((((S)-5-oxopyrrolidin-2-yl)methyl)-amino)-methyl)-pyridin-2-yl)-[1,1′-biphenyl]-3-yl)-3-((((3,3-dimethyl-5-oxopyrrolidin-2-yl)methyl)amino)methyl)-4H-pyrido[1,2-a]pyrimidin-4-one] | 67 nM
COc1nc(-c2cccc(-c3cccc(-c4ccc5c(CN(C)CCO)cn(C)c5n4)c3Cl)c2Cl)ccc1CNC[C@@H]1CCC(=O)N1 [Example 412, (5S)-5-[[[6-[2-Chloro-3-[2-chloro-3-[3-[[2-hydroxyethyl(methyl)amino]methyl]-1-methyl-pyrrolo[2,3-b]pyridin-6-yl]phenyl]phenyl]-2-methoxy-3-pyridyl]methylamino]methyl]pyrrolidin-2-one] | 5.2 nM
CNC(=O)C(C)(C)NCc1cc(=O)n2ccc(-c3cccc(-c4cccc(-c5ccc(CNC[C@@H]6CCC(=O)N6)c(OC)n5)c4Cl)c3Cl)cc2n1 [Example 341, (S)-2-(((8-(2,2′-Dichloro-3′-(6-methoxy-5-((((5-oxopyrrolidin-2-yl)methyl)amino)methyl)pyridin-2-yl)-[1,1′-biphenyl]-3-yl)-4-oxo-4H-pyrido[1,2-a]pyrimidin-2-yl)methyl)amino)-N,2-dimethylpropanamide] | 0.1 nM
COc1nc(-c2cccc(-c3cccc(-c4ccn5c(=O)c(CN(C)CCN)cnc5c4)c3Cl)c2Cl)ccc1CNC[C@@H]1CCC(=O)N1 [Example 279, (S)-3-(((2-aminoethyl)(methyl)amino)methyl)-8-(2,2′-dichloro-3′-(6-methoxy-5-((((5-oxopyrrolidin-2-yl)methyl)amino)methyl)pyridin-2-yl)-[1,1′-biphenyl]-3-yl)-4H-pyrido[1,2-a]pyrimidin-4-one] | 0.1 nM
CNCCCN(C)Cc1ccc(-c2cccc(-c3cccc(-c4ccn5c(=O)c(CN(C)CCNC)cnc5c4)c3Cl)c2Cl)nc1OC [Example 276, 8-(2,2′-dichloro-3′-(6-methoxy-5-((methyl(3-(methylamino)propyl)amino)methyl)pyridin-2-yl)-[1,1′-biphenyl]-3-yl)-3-((methyl(2-(methylamino)ethyl)amino)methyl)-4H-pyrido[1,2-a]pyrimidin-4-one] | 90 nM
COc1nc(-c2cccc(-c3cccc(-c4ccn5c(=O)c(CNCC(F)(F)CO)cnc5c4)c3Cl)c2Cl)ccc1CNC[C@@H]1CCC(=O)N1 [Example 300, (S)-8-(2,2′-Dichloro-3′-(6-methoxy-5-((((5-oxopyrrolidin-2-yl)methyl)amino)methyl)pyridin-2-yl)-[1,1′-biphenyl]-3-yl)-3-(((2,2-difluoro-3-hydroxypropyl)amino)methyl)-4H-pyrido[1,2-a]pyrimidin-4-one] | 130 nM
COc1nc(-c2cccc(-c3cccc(-c4ccn5c(=O)c(CN6CC[C@H](C(=O)O)C6)cnc5c4)c3Cl)c2Cl)cnc1CNC[C@@H]1CCC(=O)N1 [Example 116, (S)-1-((8-(2,2′-Dichloro-3′-(6-methoxy-5-(((((S)-5-oxopyrrolidin-2-yl)methyl)amino)methyl)pyrazin-2-yl)-[1,1′-biphenyl]-3-yl)-4-oxo-4H-pyrido[1,2-a]pyrimidin-3-yl)methyl)pyrrolidine-3-carboxylic acid] | 0.3 nM
COc1nc(-c2cccc(-c3cccc(-c4ccc5c(CNC[C@H](C)O)cn(C)c5n4)c3Cl)c2Cl)ccc1CNC[C@@H]1CCC(=O)N1 [Example 411, (5S)-5-[[[6-[2-Chloro-3-[2-chloro-3-[3-[[[(2S)-2-hydroxypropyl]amino]methyl]-1-methyl-pyrrolo[2,3-b]pyridin-6-yl]phenyl]phenyl]-2-methoxy-3-pyridyl]methylamino]methyl]pyrrolidin-2-one] | 1.6 nM
Cc1c(COc2cc(OCc3cncc(C#N)c3)c(CN3CC(C(=O)O)C3)cc2Cl)cccc1-c1cccc(-c2ccn3c(=O)c(CN4CC(C(=O)O)C4)ccc3c2)c1C [Example 29, 1-((8-(3′-((4-((3-Carboxyazetidin-1-yl)methyl)-2-chloro-5-((5-cyanopyridin-3-yl)methoxy)phenoxy)methyl)-2,2′-dimethyl-[1,1′-biphenyl]-3-yl)-4-oxo-4H-quinolizin-3-yl)methyl)azetidine-3-carboxylic acid] | 0.9 nM
COc1nc(-c2cccc(-c3cccc(-c4ccn5c(Cl)c(CNC[C@@H]6CCC(=O)N6)nc5c4)c3Cl)c2Cl)ccc1CNC[C@@H]1CCC(=O)N1 [Example 382, (5S)-5-[[[6-[2-chloro-3-[2-chloro-3-[3-chloro-2-[[[(2S)-5-oxopyrrolidin-2-yl]methylamino]methyl]imidazo[1,2-a]pyridin-7-yl]phenyl]phenyl]-2-methoxy-3-pyridyl]methylamino]methyl]pyrrolidin-2-one] | 110 nM
COc1cc(-c2cccc(-c3cccc(-c4ccc(CNC[C@@H]5CCC(=O)N5)c(OC)n4)c3Cl)c2Cl)cc2c1CN(C[C@H](C)O)CC2 [Example 418, (S)-5-((((6-(2,2′-Dichloro-3′-(2-((S)-2-hydroxypropyl)-8-methoxy-1,2,3,4 tetrahydroisoquinolin-6-yl)-[1,1′-biphenyl]-3-yl)-2-methoxypyridin-3-yl)methyl)amino)methyl)pyrrolidin-2-one] | 23 nM
COc1cc(-c2cccc(-c3cccc(-c4ccn5c(=O)c(CNC[C@@H]6CCC(=O)N6)cnc5c4)c3Cl)c2Cl)ccc1CNC[C@@H]1CCC(=O)N1 [Example 90, 8-(2,2′-Dichloro-3″-methoxy-4″-(((((S)-5-oxopyrrolidin-2-yl)methyl)amino)methyl)-[1,1′:3′,1″-terphenyl]-3-yl)-3-(((((S)-5-oxopyrrolidin-2-yl)methyl)amino)methyl)-4H-pyrido[1,2-a]pyrimidin-4-one] | 1.5 nM
